Measured values taken from patent publication US20080025970A1, “Treatment of atherosclerosis” (priority 2004, published 2008).

What was measured:
Assay type in all cases: cell-based
[1] = tested on: adhesion of highly activated U937 cells to HSP60; test: Adhesion of highly activated U937 cells to HSP60 coated wells; settings: at the lowest concentration tested; FIG. 9
[2] = tested on: adhesion of monocytes to tissue sections of atherosclerotic plaque; test: Adhesion of monocytes to tissue sections of atherosclerotic plaque
[3] = tested on: adhesion of highly activated U937 cells to oxidised LDL; test: Adhesion of highly activated U937 cells (PMA plus vitamin A and vitamin D) to oxidised LDL; settings: raft-disrupting agents; all concentrations tested; FIG. 5
Experimental: Plastic wells were coated with oxidised LDL, or fibronectin 10 μg/ml for 16 hrs at 4° C., and washed. Monocytes were isolated in an unactivated state from one unit of buffy coat cells by the method of Tsouknos et al^26, labelled with carboxyfluorescein for 30 mins, and washed. Inhibitors and control Ig UPC10 were added to the plates in 50 μL, and then 50 μL of cells at a final concentration of 3×10^6/ml in the assay. The plates were incubated at 37° C. for 1 hr. Non-adherent cells were removed by a standardised washing procedure, and after addition of cell suspension to 3 wells as the 100% control, the plates were measured in an automatic fluorescent spectrophotometer.
U937 cells were stimulated with PMA 10 ng/ml, plus vitamin A (1 ug/ml) and vitamin D (10^-7 M) for 16 hours, and then the assay was performed as in Example 3.
U937 cells were stimulated as in Example 5, and the experiment performed as in Example 3. The results are shown in FIG. 6, with the legend as in the previous figures. CD14, CD18, TLR-4 antibodies were all murine Igs. MOPC21:—control murine IgG1, UPC10:—control murine IgG2a.

C[S+](C)[O-] [DMSO, Dimethylsulphoxide]
inhibition of binding of highly activated U937 cells to HSP60 [1]: highly inhibitory | inhibition of adhesion of monocytes to tissue sections of atherosclerotic plaque [2]: inhibits adhesion

C[C@@H]1[C@H](O)[C@@H](C)/C=C/C=C/CC/C=C/C=C/C=C/C=C/C(O[C@H]2O[C@H](C)[C@@H](O)[C@H](N)[C@@H]2O)CC2O[C@](O)(CC(O)C(O)CCC(O)CC(O)CC(O)CC(=O)O[C@H]1C)CC(O)C2C(=O)O (stereo partly shown) [nystatin]
inhibition of activated U937 cell adhesion to oxidised LDL [3]: near-total inhibition

methyl cyclodextrin
inhibition of activated U937 cell adhesion to oxidised LDL [3]: near-total inhibition
